From patent US20240398973A1, “ENGINEERED ANTIBODY COMPOUNDS AND CONJUGATES THEREOF” (Eli Lilly and Company, priority 2017, published 2024)
Several values for one entry are separate records, joined by “and”; a condition that tells them apart may be missing. Identical values can stand only once. Like-named read-outs stand apart in the source and are kept apart here. Where no end group is shown, it is not given here. The star is where a group is joined. hydrolyzed maleimide‑PEG linker = hydrolyzed maleimide-polyethylene glycol (PEG) linker, bound to the Lys side chain through an epsilon amide bond; For = O=C*

Columns and labels:
[1] = target: formyl peptide receptor 1 (FPR1) on primary human polymorphonuclear neutrophils (human) (UniProt P21462); experiment: cell-based or functional assay
[2] = target: formyl peptide receptor 1 (FPR1) on primary human polymorphonuclear neutrophils (human) (UniProt P21462); experiment: cell-based or functional assay; remark: listed apart in the source
[3] = system: primary human polymorphonuclear neutrophil (PMN); experiment: PMN chemotaxis (transwell, modified Boyden chamber); assay type: cell-based; conditions: relative to 100 nM fMLF, raw migration values (Table 4b)
Experimental: Chemotaxis is measured by observing primary human polymorphonuclear neutrophil (PMN) migration across transwell membranes (Corning #3415) towards antibody conjugates in a modified Boyden chamber assay. Approximately 2-4×10^5 cells from neutrophil-enriched preparations are seeded in upper transwell chambers on membranes with 3.0 um pores. The lower transwell chambers contain solutions of buffer alone and fMLF (N-formyl-Met-Leu-Phe peptide as positive control) and experimental antibody bioconjugates. […] Cell numbers are determined using standard curves. All data are transformed to percent relative to the maximal fMLF response for each individual experiment.

human primary PMNs = experiment: PMN reactive oxygen species (ROS) production, luminol-amplified chemiluminescence; assay type: cell-based
Experimental: Production of ROS by human primary PMNs is measured using luminol-amplified chemiluminescence. Following isolation, PMNs are suspended at 1×10^6 cells/ml in HBSS containing calcium and magnesium (Gibco #14025-092) supplemented with 0.25% human serum albumin (Gemini Bio producst #800-124) and 50 uM Luminol (SigmaAldrich #123072-2.5G). 100 μl of cell suspension (1×10^5 total cells) is then distributed into each well of a 96-well plate suitable for fluorescence measurement (Greiner #655098) and temperature equilibrated to 37° C. for 5 minutes. Following equilibration, 10× solution of antibody conjugate is applied to the wells, achieving a 1× final concentration.
Immediately after the addition of antibody conjugate, chemiluminescence signal is recorded in a luminometer maintained at 37° C. with 0.01 seconds dwell time per well, 20 seconds total time between sequential plate readings and 45 minutes total run time (PerkinElmer EnVision Multilabel Plate Reader).

[4] = system: Mouse neutrophils purified from marrow; experiment: Mouse PMN ROS production; assay type: cell-based; conditions: relative to 10000 nM fMLF, AUC 5 minutes (Table 8c)
Experimental: Mouse neutrophils purified from marrow were exposed to formyl peptides or antibody conjugates and ROS production was measured using luminol amplified chemiluminescence essentially as described above.

[5] = system: Daudi B lymphoblast cells; experiment: PMN-mediated killing of DAUDI tumor cells (xCelligence); assay type: cell-based, human; conditions: 6 hours, mean ± SD, n=4, normalized to Buffer control
Experimental: Antibody-targeted killing of tumor cells by PMNs is measured using the xCelligence Real Time Cell Analysis system (ACEA Biosciences). This system monitors cell viability in real time by recording electrical impedance between sensors on the growth surface of culture plates. It reports a normalized cell index (NCI) that is normalized to control cells in parallel wells and allows one to control for relative culture viability. NCIs are measured continuously at 15 minute intervals for 24 hours following incubation of tumor cultures with targeted antibodies and addition of human primary PMNs at a 10:1 PMN to tumor cell ratio. Prior to seeding with tumor cells, xCelligence 96-well E-Plates are calibrated for background signal. Each well receives 50 μl of culture medium (RPMI+10% FBS+antibiotics) and the E-plate is equilibrated to 37° C. in a humidified incubator containing the xCelligence plate reader.
After equilibration, E-Plate well variations in background are measured. Cultured tumor cell lines are dissociated, counted and diluted to a final density of 1×10^5 cells/ml in culture medium and 100 μl of diluted tumor cells were plated into E-Plate wells. The E-Plate is returned to the xCelligence reader and cell indices are measured in 15 minute intervals overnight to establish baseline.
The next day, PMNs are isolated from fresh human blood samples and brought to a final density of 2×10^6 cells/ml in culture medium. Following overnight recording, the E-Plate is removed from the xCelligence reader and 22 μl of 10× antibody solution or buffer is added to designated wells. After 15 minutes, 50 μl of diluted PMNs (1×10^5 total cells) or buffer was added to designated wells. Immediately after PMN addition, the E-Plate is returned to the xCelligence reader and cell indices were measured for up to 72 hours. After completion of the experiment, cell indices are normalized (NCI) to the time point immediately preceding the addition of antibodies.
Percent NCI is defined as ((NCI of sample)/(NCI of Tumor Cells Alone)×100). For non-adherent tumor cells (Daudi cells), the xCelligence Immunotherapy Kit-B Cell Killing Assay (ACEA #8100004) is used to tether the tumor cells to E-Plate wells according to manufacturer protocols. Following tethering and background acquisition, the protocols are performed as indicated above.
Non-adherent, CD20+ Daudi B lymphoblast cells are immobilized with xCelligence Immunotherapy Kit (ACEA #8100004) to tether the tumor cells to E-Plate wells according to manufacturer protocols, and are exposed to conditions shown below in Table 16. Percent NCI values represent relative viability of DAUDI cells following 6 hours of exposure to the stated conditions. Values are given as mean percentage normalized to “Buffer control” ±SD; n=4 for all conditions. Statistical significance was determined by one-way ANOVA followed by post-hoc Dunnett's multiple comparisons test vs “+PMN”.

## TMab-G1-fMLFK-HC-124C-378C (antibody)
[1]
  EC50 of PMN ROS production: 164 nM

## fMLF (N-formyl-Met-Leu-Phe peptide)
[2]
  EC50 of PMN ROS production: 154 nM
[1]
  EC50 of PMN ROS production: 334 nM

## FRM-021: SEQ ID NO: 36; formyl-Met-Ile-Phe-Leu-Lys, lysine side chain epsilon amide to a hydrolyzed maleimide-PEG linker (For-MIFLK(hydrolyzed maleimide‑PEG linker))
[3]; 1 nM
  PMN Chemotaxis Towards Formyl Peptides: 151.7%
[3]; 3 nM
  PMN Chemotaxis Towards Formyl Peptides: 142.2%
[3]; 10 nM
  PMN Chemotaxis Towards Formyl Peptides: 137.4%
[3]; 30 nM
  PMN Chemotaxis Towards Formyl Peptides: 52.9%
[3]; 100 nM
  PMN Chemotaxis Towards Formyl Peptides: 37.0%
[3]; 300 nM
  PMN Chemotaxis Towards Formyl Peptides: 35.6%
[3]; 1000 nM
  PMN Chemotaxis Towards Formyl Peptides: 22.8%
Human primary PMNs; 10 nM, relative to 3000 nM fMLF, AUC 5 minutes (Table 8b)
  PMN ROS production: 8.4 percentage
Human primary PMNs; 30 nM, relative to 3000 nM fMLF, AUC 5 minutes (Table 8b)
  PMN ROS production: 34.4 percentage
Human primary PMNs; 100 nM, relative to 3000 nM fMLF, AUC 5 minutes (Table 8b)
  PMN ROS production: 69.2 percentage
Human primary PMNs; 300 nM, relative to 3000 nM fMLF, AUC 5 minutes (Table 8b)
  PMN ROS production: 84.4 percentage
Human primary PMNs; 1000 nM, relative to 3000 nM fMLF, AUC 5 minutes (Table 8b)
  PMN ROS production: 91.2 percentage
Human primary PMNs; 3000 nM, relative to 3000 nM fMLF, AUC 5 minutes (Table 8b)
  PMN ROS production: 102.9 percentage
Human primary PMNs; 10000 nM, relative to 3000 nM fMLF, AUC 5 minutes (Table 8b)
  PMN ROS production: 91.7 percentage
Human primary PMNs; Best-Fit values in Graphpad PRISM (Table 8b)
  EC50: 51.2 nM
[4]; 10 nM
  Mouse PMN ROS Production: 14.5 percentage
[4]; 30 nM
  Mouse PMN ROS Production: 17.3 percentage
[4]; 100 nM
  Mouse PMN ROS Production: 112.6 percentage
[4]; 300 nM
  Mouse PMN ROS Production: 150.3 percentage
[4]; 1000 nM
  Mouse PMN ROS Production: 180.2 percentage
[4]; 3000 nM
  Mouse PMN ROS Production: 194.4 percentage
[4]; 10000 nM
  Mouse PMN ROS Production: 186.9 percentage

B1: AME133-G1(IQ)-UC-HC-124C-378C: unconjugated AME133 (anti-CD20) IgG1(IQ) with HC 124C and 378C; HC SEQ ID NO:8, LC SEQ ID NO:9 (antibody)
heavy: EVQLVQSGAEVKKPGESLKISCKGSGRTFTSYNMHWVRQMPGKGLEWMGAIYPLTGDTSYNQKSKLQVTISADKSISTAYLQWSSLKASDTAMYYCARSTYVGGDWQFDVWGKGTTVTVSSASTKGPCVFPLAPSSKSTSGGTAALGCLVKDYFPEPVTVSWNSGALTSGVHTFPAVLQSSGLYSLSSVVTVPSSSLGTQTYICNVNHKPSNTKVDKKVEPKSCDKTHTCPPCPAPELLGGPSVFLFPPKIKDTLMISRTPEVTCVVVDVSHEDPEVKFNWYVDGVEVHNAKTKPREEQYNSTYRVVSVLTVLHQDWLNGKEYKCKVSNKALPAPIEKTISKQKGQPREPQVYTLPPSRDELTKNQVSLTCLVKGFYPSDICVEWESNGQPENNYKTTPPVLDSDGSFFLYSKLTVDKSRWQQGNVFSCSVMHEALHNHYTQKSLSLSPG
light: EIVLTQSPGTLSLSPGERATLSCRASSSVPYIHWYQQKPGQAPRLLIYATSALASGIPDRFSGSGSGTDFTLTISRLEPEDFAVYYCQQWLSNPPTFGQGTKLEIKRTVAAPSVFIFPPSDEQLKSGTASVVCLLNNFYPREAKVQWKVDNALQSGNSQESVTEQDSKDSTYSLSSTLTLSKADYEKHKVYACEVTHQGLSSPVTKSFNRGEC
modifications: SITE 128 THIOETH - position 128 is cysteine residue modified by thioether bond formation to maleimide-polyethylene glycol (PEG) linker; SITE 382 THIOETH - position 382 is cysteine residue modified by thioether bond formation to maleimide-polyethylene glycol (PEG) linker
Human primary PMNs; 1 nM, relative to 1000 nM fMLF, AUC 5 minutes (Tables 9, 11)
  PMN ROS production: 10.3 percentage
Human primary PMNs; 3 nM, relative to 1000 nM fMLF, AUC 5 minutes (Tables 9, 11)
  PMN ROS production: 10.6 percentage
Human primary PMNs; 10 nM, relative to 1000 nM fMLF, AUC 5 minutes (Tables 9, 11)
  PMN ROS production: 10.6 percentage
Human primary PMNs; 30 nM, relative to 1000 nM fMLF, AUC 5 minutes (Tables 9, 11)
  PMN ROS production: 10.5 percentage
Human primary PMNs; 100 nM, relative to 1000 nM fMLF, AUC 5 minutes (Tables 9, 11)
  PMN ROS production: 10.3 percentage
Human primary PMNs; 300 nM, Buffer, relative to fMLF, AUC 5 minutes (Table 12a)
  PMN ROS production, Exposure: Buffer: 25.3 percentage
Human primary PMNs; 300 nM, PMNs pre-incubated with 1 uM Cyclosporin H for 30 minutes, relative to fMLF (Table 12a)
  PMN ROS production, Exposure: Cyclosporin H: 19.7 percentage
Human primary PMNs; 300 nM, relative to 1000 nM fMLF, AUC 5 minutes (Tables 9, 11)
  PMN ROS production: 11.4 percentage
Human primary PMNs; 1000 nM, relative to 1000 nM fMLF, AUC 5 minutes (Tables 9, 11)
  PMN ROS production: 13.9 percentage
[5]; 10 nM + PMN
  Percent NCI: 58.7 ± 13.2%
[5]; 10 nM without PMN
  Percent NCI: 97.7 ± 1.4%
[5]; 30 nM + PMN
  Percent NCI: 93.4 ± 22.4%
[5]; 30 nM without PMN, listed as AME133-G1(IQ)-UC-124C-378C
  Percent NCI: 97.3±1.2% and 97.3 ± 0.6%
[5]; 100 nM + PMN
  Percent NCI: 114 ± 6.9%
[5]; 100 nM without PMN
  Percent NCI: 90.9 ± 0.6%
[5]; 300 nM + PMN
  Percent NCI: 113.2 ± 7.2%
[5]; 300 nM without PMN
  Percent NCI: 87.7 ± 1.5%
